# Measurements from PMC7961380, “A Systematic Study of the In Vitro Pharmacokinetics and Estimated Human In Vivo Clearance of Indole and Indazole-3-Carboxamide Synthetic Cannabinoid Receptor Agonists Detected on the Illicit Drug Market” (Molecules, 2021).
# Where two headings read alike, the source gives them in different places.
# Legend:
# [1] = Plasma protein binding by equilibrium dialysis; format: in vitro ADME, human; settings: for fraction unbound at 5 h, 10 µg mL^−1: human, pooled human plasma, pH 7.4, equilibrium dialysis 5 h
# [2] = Metabolic stability, pooled human liver microsome incubations; settings: for Predicted In Vivo Hepatic Clearance, CLH: from pHLM CLint, well-stirred model with plasma fu, Q 21 mL min^−1 kg^−1; for CLint scaled at 0.5 µM / half-life at 0.5 µM: human, microsomes; for CLint scaled at 0.5 µM: pH 7.4, Intrinsic clearance; for half-life at 0.5 µM: pH 7.4, T1/2 (min), pHLM 0.5 mg mL^−1, 0.5 µM, NADPH, 37 °C; for half-life at 0.5 µM / Microsomal Intrinsic Clearance, CLint micr: n ≥ 3 ± SD
# [3] = Short-term plasma stability with and without esterase inhibitors; settings: 37 °C; for remaining at 3 h, 5 µM / remaining at 5 h: human, pH 7.4, Parent Compound Remaining (%)
# Experimental: The pooled plasma used for both plasma stability and plasma binding studies originated from 50 donors, collected as whole blood from donors in the United States at an FDA-approved collection center, processed into plasma by centrifugation and immediately frozen (Innovative Research; Novi, MI, USA) and purchased from Patricell (Nottingham, UK). […] Stock solutions were prepared in DMSO. […] For incubations without inhibitor an equivalent volume of DMSO was included. Plasma mixture was pre-incubated at 37 °C for 5 min. Test compounds (5 µM) and procaine (positive control, 50 µM) were added to pre-warmed plasma mixture containing inhibitors. Incubation volume was 1 mL. Samples were mixed and 80 µL was immediately sampled and quenched into 200 µL ACN spiked with donepezil (internal standard (IS), 50 ng mL^−1). […] Peak area ratio of analyte to IS was used to determine half-lives of test compounds in plasma, both with and without the presence of esterase inhibitors.
# The human plasma used was pooled from 50 donors, and was collected as whole blood from donors in
# the United States at an FDA-approved collection center, processed into plasma by centrifugation and
# The stability of the tested SCRAs, select metabolites and procaine control in pooled human plasma over
# inhibitors bis(4-nitrophenyl) phosphate (BNPP) and phenyl methyl sulphonyl fluoride (PMSF) is
# [4] = Metabolic stability, pooled human cryopreserved hepatocyte incubations; settings: human, hepatocytes; for CLint scaled at 0.5 µM: Intrinsic clearance, pHHeps, alternative hepatocyte cell density 99x10^6 hepatocytes per gram liver
# [5] = tested on: pooled human cryopreserved hepatocytes (pHHeps); experiment: as above; settings: for Predicted In Vivo Hepatic Clearance, CLH: from pHHeps CLint, well-stirred model with plasma fu, Q 21 mL min^−1 kg^−1
# [6] = 37 °C, 10 µg mL^−1, read-out: PPB (%) (converted)
# [7] = 37 °C, plasma, read-out: Fraction Unbound (fu)
# [8] = pHLM, alternative microsomal scaling factor 32 mg microsomal protein per gram liver
# [9] = pHLM, alternative microsomal scaling factor 45 mg microsomal protein per gram liver
# [10] = pHLM, scaling factor 32 mg microsomal protein per gram liver
# [11] = pHLM, scaling factor 45 mg microsomal protein per gram liver
# [12] = Esterase Inhibitors, pH 7.4, BNPP and PMSF 500 µM each
# [13] = plasma, No Esterase Inhibitors, pH 7.4, pooled human plasma
# [14] = T1/2 (min), pHHeps 0.25 million cells mL^−1, 0.5 µM, 37 °C, n ≥ 3 ± SD
# [15] = pHHeps, 99x10^6 hepatocytes per gram liver
Structure (SMILES),"Predicted In Vivo Hepatic Clearance, CLH [2] [mL/min/kg]","Hepatic extraction ratio, EH ([2]; from pHLM incubations)","CLint scaled at 0.5 µM [2, 8] [mL/min/kg]","CLint scaled at 0.5 µM [2, 9] [mL/min/kg]",half-life at 0.5 µM [2] [min],"% parent compound remaining, Average ([2]; pHLM, 3 min) [%]","% parent compound remaining, Average ([2]; pHLM, 6 min) [%]","% parent compound remaining, Average ([2]; pHLM, 9 min) [%]","% parent compound remaining, Average ([2]; pHLM, 15 min) [%]","% parent compound remaining, Average ([2]; pHLM, 30 min) [%]","Microsomal Intrinsic Clearance, CLint micr ([2]; pHLM)","Hepatic extraction ratio, EH [2, 10]","Predicted in vivo hepatic clearance, CLH [2, 10] [mL/min/kg]","Predicted in vivo hepatic clearance, CLH [2, 11] [mL/min/kg]","remaining at 3 h, 5 µM [3, 12] [%]","remaining at 3 h, 5 µM [3, 13] [%]",CLint scaled at 0.5 µM [4] [mL/min/kg],"half-life at 0.5 µM [4, 14] [min]","Predicted In Vivo Hepatic Clearance, CLH [5] [mL/min/kg]","Hepatic extraction ratio, EH ([5]; from pHHeps incubations)",other results
"COC(=O)[C@@H](NC(=O)c1nn(Cc2ccc(F)cc2)c2ccccc12)C(C)C [(S)-AMB-FUBINACA (1), methyl [1-(4-fluorobenzyl)-1H-indazole-3-carbonyl]valinate]",15.27 ± 0.14,0.73 ± 0.006,1790,2520,0.6 ± 0.02,3.8,0.7,0.2,0.1,0.3,2.182 ± 0.071 mL min^−1 mg Microsomal Protein^−1,0.62 ± 0.008,12.99,14.60,96.1 ± 1.6,96.6 ± 3.8,2980,2.5 ± 0.55,15.52 ± 0.85,0.74 ± 0.041,"recovery (total peak area in dialysed samples vs 4 °C samples) ([1]; PPB thermal stability control, 5 h): 77 ± 4.4%; fraction unbound at 5 h, 10 µg mL^−1 [1, 6]: 0.019; fraction unbound at 5 h, 10 µg mL^−1 [1, 7]: 0.019 ± 0.0008; Parent Compound Remaining (%), Esterase Inhibitors ([3]; 5 h, pH 7.4, BNPP and PMSF 500 µM each): 93.5 ± 0.1%; Parent Compound Remaining (%), No Esterase Inhibitors ([3]; 5 h, pH 7.4, pooled human plasma): 85.9 ± 4.0%; remaining at 5 h ([3]; Esterase Inhibitors, 5 h, pH 7.4, BNPP and PMSF 500 µM each): 94 ± 0.1%; remaining at 5 h ([3]; plasma, No Esterase Inhibitors, 5 h, pH 7.4, pooled human plasma): 86 ± 4%; Hepatic extraction ratio, EH [5, 15]: 0.72 ± 0.042; Predicted in vivo hepatic clearance, CLH [5, 15]: 15.21 ± 0.88 mL/min/kg; % parent compound remaining, Average ([5]; pHHeps, 3 min): 37.0%; % parent compound remaining, Average ([5]; pHHeps, 6 min): 18.7%; % parent compound remaining, Average ([5]; pHHeps, 9 min): 14.7%; % parent compound remaining, Average ([5]; pHHeps, 15 min): 6.2%; % parent compound remaining, Average ([5]; pHHeps, 30 min): 1.4%; % parent compound remaining, Average ([5]; pHHeps, 45 min): 1.1%; % parent compound remaining, Average ([5]; pHHeps, 60 min): 0.8%"
"COC(=O)[C@@H](NC(=O)c1nn(CCCCCF)c2ccccc12)C(C)(C)C [(S)-5F-MDMB-PINACA (2), methyl 2-[1-(5-fluoropentyl)-1H-indazole-3-carboxamido]-3,3-dimethylbutanoate]",4.76 ± 0.17,0.23 ± 0.008,171,240 ± 11,6.7 ± 0.31,69.9,51.7,39.0,22.7,6.1,0.207 ± 0.009 mL min^−1 mg Microsomal Protein^−1,0.15 ± 0.006,3.18,4.22 ± 0.15,97 ± 1.1,92.5 ± 10.2,559,13 ± 3.3,8.05 ± 1.15,0.38 ± 0.055,"PPB (%) ([1]; equilibrium dialysis 5 h, 37 °C, 10 µg mL^−1): 97.8 ± 0.19%; Fraction Unbound (fu) ([1]; equilibrium dialysis 5 h, 37 °C, plasma): 0.022 ± 0.0019; Hepatic extraction ratio, EH [2, 11]: 0.20 ± 0.007; half-life at 0.5 µM ([4]; half-life, pHHep lot HUE50-N): 13.3 ± 3.4 min; half-life ([5]; pHHep lot HUE50-P): 13.2 ± 3.4 min; Hepatic extraction ratio, EH [5, 15]: 0.37; Predicted in vivo hepatic clearance, CLH [5, 15]: 7.67 mL/min/kg; % parent compound remaining, Average ([5]; pHHeps, 3 min): 77.3%; % parent compound remaining, Average ([5]; pHHeps, 6 min): 66.9%; % parent compound remaining, Average ([5]; pHHeps, 9 min): 57.5%; % parent compound remaining, Average ([5]; pHHeps, 15 min): 48.3%; % parent compound remaining, Average ([5]; pHHeps, 30 min): 21.1%; % parent compound remaining, Average ([5]; pHHeps, 45 min): 10.6%; % parent compound remaining, Average ([5]; pHHeps, 60 min): 5.6%"
"C=CCCCn1nc(C(=O)N[C@@H](C(=O)OC)C(C)(C)C)c2ccccc21 [(R)-MDMB-4en-PINACA (5), methyl 3,3-dimethyl-2-[1-(pent-4-en-1-yl)-1H-indazole-3-carboxamido] butanoate]",4.94 ± 0.39,0.24 ± 0.019,208,292,5.5 ± 0.59,68.4,48.2,32.3,14.6,2.5,0.253 ± 0.026 mL min^−1 mg Microsomal Protein^−1,0.16 ± 0.014,3.32,4.38 ± 0.36,89.4 ± 3.4,87.2 ± 6.9,335 ± 61.6,22 ± 3.6,5.16 ± 0.70,0.25 ± 0.033,"fraction unbound at 5 h, 10 µg mL^−1 [1, 6]: 0.019; fraction unbound at 5 h, 10 µg mL^−1 [1, 7]: 0.019 ± 0.0071; Hepatic extraction ratio, EH [2, 11]: 0.21 ± 0.017; Hepatic extraction ratio, EH [5, 15]: 0.23 ± 0.032; Predicted in vivo hepatic clearance, CLH [5, 15]: 4.86 ± 0.67 mL/min/kg; % parent compound remaining, Average ([5]; pHHeps, 3 min): 80.8%; % parent compound remaining, Average ([5]; pHHeps, 6 min): 77.7%; % parent compound remaining, Average ([5]; pHHeps, 9 min): 70.3%; % parent compound remaining, Average ([5]; pHHeps, 15 min): 58.1%; % parent compound remaining, Average ([5]; pHHeps, 30 min): 38.0%; % parent compound remaining, Average ([5]; pHHeps, 45 min): 26.6%; % parent compound remaining, Average ([5]; pHHeps, 60 min): 20.8%"
"C=CCCCn1cc(C(=O)N[C@H](C(=O)OC)C(C)(C)C)c2ccccc21 [(S)-MDMB-4en-PICA (12), methyl 3,3-dimethyl-2-[1-(pent-4-en-1-yl)-1H-indole-3-carboxamido]butanoate]",5.69 ± 0.61,0.27 ± 0.029,137,192,8.5 ± 1.3,77.5,62.6,50.2,28.5,5.6,0.166 ± 0.024 mL min^−1 mg Microsomal Protein^−1,0.18 ± 0.022,3.88,5.07 ± 0.57,89.4 ± 2.3,91.5 ± 8.6,197,37 ± 6.9,5.46 ± 0.78,0.26 ± 0.037,"fraction unbound at 5 h, 10 µg mL^−1 [1, 6]: 0.035; fraction unbound at 5 h, 10 µg mL^−1 [1, 7]: 0.035 ± 0.0031; Hepatic extraction ratio, EH [2, 11]: 0.24 ± 0.027; Hepatic extraction ratio, EH [5, 15]: 0.25; Predicted in vivo hepatic clearance, CLH [5, 15]: 5.15 mL/min/kg; % parent compound remaining, Average ([5]; pHHeps, 3 min): 93.4%; % parent compound remaining, Average ([5]; pHHeps, 6 min): 83.7%; % parent compound remaining, Average ([5]; pHHeps, 9 min): 80.4%; % parent compound remaining, Average ([5]; pHHeps, 15 min): 74.0%; % parent compound remaining, Average ([5]; pHHeps, 30 min): 51.6%; % parent compound remaining, Average ([5]; pHHeps, 45 min): 34.2%; % parent compound remaining, Average ([5]; pHHeps, 60 min): 25.0%"
"COC(=O)[C@@H](NC(=O)c1cn(CC2CCCCC2)c2ccccc12)C(C)C [(S)-AMB-CHMICA (9), methyl [1-(cyclohexylmethyl)-1H-indole-3-carbonyl]valinate]",4.37 ± 0.68,0.21 ± 0.032,282,397,4.1 ± 0.75,52.7,35.1,25.3,9.9,2.5,0.343 ± 0.069 mL min^−1 mg Microsomal Protein^−1,0.14 ± 0.024,2.91 ± 0.50,3.87 ± 0.62,90.5 ± 3.4,93.9 ± 9.3,935 ± 44.8,7.6 ± 0.35,7.68 ± 0.22,0.37 ± 0.011,"fraction unbound at 5 h, 10 µg mL^−1 [1, 6]: 0.012; fraction unbound at 5 h, 10 µg mL^−1 [1, 7]: 0.012 ± 0.0006; Hepatic extraction ratio, EH [2, 11]: 0.18 ± 0.030; Hepatic extraction ratio, EH [5, 15]: 0.35 ± 0.011; Predicted in vivo hepatic clearance, CLH [5, 15]: 7.31 ± 0.23 mL/min/kg; % parent compound remaining, Average ([5]; pHHeps, 3 min): 65.0%; % parent compound remaining, Average ([5]; pHHeps, 6 min): 58.4%; % parent compound remaining, Average ([5]; pHHeps, 9 min): 43.3%; % parent compound remaining, Average ([5]; pHHeps, 15 min): 23.8%; % parent compound remaining, Average ([5]; pHHeps, 30 min): 8.7%; % parent compound remaining, Average ([5]; pHHeps, 45 min): 3.5%; % parent compound remaining, Average ([5]; pHHeps, 60 min): 1.5%"
